# Experimental data published in patent US20200163984A1, “USE OF ISOVALERYL SPIRAMYCIN I, II AND/OR III IN MANUFACTURING MEDICAMENT FOR TREATING AND/OR PREVENTING TUMOR, AND MEDICAMENT” (SHENYANG FUYANG PHARMACEUTICAL TECHNOLOGY CO., LTD., priority 2017, published 2020).
# Key:
# [1] = system: transplanted tumor of human breast cancer cell MCF-7; test: MCF-7 transplanted tumor in nude mice
# [2] = system: transplanted tumor of HT-29 cells; test: HT-29 transplanted tumor in nude mice; conditions: for Inhibition Rate (%) / Tumor Weight: HT-29 nude mice; for Tumor Volume (mm3) (d30): d 30
# [3] = system: transplanted tumor of mouse Lewis lung cancer; test: Transplanted tumor of mouse Lewis lung cancer; conditions: for Tumor Volume (mm3) (d 1) / Tumor Volume (mm3) (d30) / Relative Tumor Proliferation Rate (T/C) / Relative Tumor Volume (RTV): title prints KM mouse H22 cells; for Tumor Volume (mm3) (d30): d 30; for Body Weight (g) (d1) / Body Weight (g) (d 15): mouse, in vivo
# Procedure, shortened: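 C57BL/6 mice were inoculated subcutaneously with Lewis lung cancer cells (0.2 ml of 1×10^7/mL) in the right armpit and grouped the next day (10 per group). Mice were dosed intragastrically at 13, 26 or 52 mg/kg for 15 days. Tumours were weighed the day after the last dose, and inhibition was calculated as (1−T/C)×100%.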
# [4] = MCF-7, 25 mg/kg (low dose) i.g. 30 days
# [5] = MCF-7, 50 mg/kg (medium dose) i.g. 30 days
# [6] = MCF-7, 100 mg/kg (high dose) i.g. 30 days
# [7] = HT-29, high dose (100 mg/kg in method) i.g. 30 days
# [8] = HT-29, low dose (25 mg/kg in method) i.g. 30 days
# [9] = HT-29, medium dose (50 mg/kg in method) i.g. 30 days
structure (smiles),measurement,setting,value
"CCC(=O)O[C@@H]1CC(=O)O[C@H](C)C/C=C/C=C/[C@H](O[C@H]2CC[C@H](N(C)C)[C@@H](C)O2)[C@H](C)C[C@H](CC=O)[C@H](O[C@@H]2O[C@H](C)[C@@H](O[C@H]3C[C@@](C)(O)[C@@H](OC(=O)CC(C)C)[C@H](C)O3)[C@H](N(C)C)[C@H]2O)[C@H]1OC [Isovaleryl spiramycin III, isovaleryl spiramycin III]",Inhibition Rate (tumor growth inhibition rate),[1]; [4],26.75%
same,Relative Tumor Proliferation Rate (T/C),[1]; [4],75.03%
same,Relative Tumor Volume (RTV),[1]; [4],13.13 ± 3.15
same,Tumor Volume (d 1),[1]; [4],137.99 ± 20.99 mm3
same,Tumor Volume (d 30),[1]; [4],1758.49 ± 129.06 mm3
same,Tumor Weight,[1]; [4],1.99 ± 0.81 g
same,Inhibition Rate (tumor growth inhibition rate),[1]; [5],39.09%
same,Relative Tumor Proliferation Rate (T/C),[1]; [5],54.92%
same,Relative Tumor Volume (RTV),[1]; [5],9.61 ± 1.66
same,Tumor Volume (d 1),[1]; [5],109.95 ± 13.42 mm3
same,Tumor Volume (d 30),[1]; [5],1043.33 ± 113.01 mm3
same,Tumor Weight,[1]; [5],1.66 ± 0.66 g
same,Inhibition Rate (tumor growth inhibition rate),"[1]; MCF-7, 50 mg/kg (medium dose) i.g. 30 days, listed as isovaleryl spiramycin III",39.08%
same,Inhibition Rate (tumor growth inhibition rate),[1]; [6],61.78%
same,Relative Tumor Proliferation Rate (T/C),[1]; [6],34.90%
same,Relative Tumor Volume (RTV),[1]; [6],5.17 ± 0.64
same,Tumor Volume (d 1),[1]; [6],113.14 ± 9.02 mm3
same,Tumor Volume (d 30),[1]; [6],684.21 ± 115.00 mm3
same,Tumor Weight,[1]; [6],1.03 ± 0.54 g
same,Relative Tumor Proliferation Rate (T/C),"[1]; MCF-7, 100 mg/kg (high dose) i.g. 30 days, listed as isovaleryl spiramycin III",34.91%
same,tumor volume and relative tumor volume compared with the model group,"[1]; MCF-7, low, medium and high doses, P<0.05",significantly lower
same,mouse weight compared with the model group,"[1]; mouse, in vivo",no significant changes
same,Relative Tumor Proliferation Rate (T/C),[2]; [7],35.63%
same,tumor growth inhibition rate,[2]; [7],63.19%
same,Relative Tumor Proliferation Rate (T/C),[2]; [8],85.54%
same,tumor growth inhibition rate,[2]; [8],19.22%
same,tumor volume and relative tumor volume compared with the model group,"[2]; HT-29, low, medium and high doses, P<0.05",significantly lower
same,Relative Tumor Proliferation Rate (T/C),[2]; [9],53.48%
same,tumor growth inhibition rate,[2]; [9],41.35%
same,Inhibition Rate (%),[2]; 25 mg/kg,19.22%
same,Tumor Weight,[2]; 25 mg/kg,1.90 ± 0.39 g
same,Inhibition Rate (%),[2]; 50 mg/kg,41.35%
same,Tumor Weight,[2]; 50 mg/kg,1.38 ± 0.37 g
same,Inhibition Rate (%),[2]; 100 mg/kg,63.19%
same,Tumor Weight,[2]; 100 mg/kg,0.87 ± 0.34 g
same,Relative Tumor Proliferation Rate (T/C),[2]; dose 25 mg/kg,85.54%
same,Relative Tumor Volume (RTV),[2]; dose 25 mg/kg,12.32 ± 4.51
same,Tumor Volume (mm3) (d 1),[2]; dose 25 mg/kg,154.49 ± 33.07 mm3
same,Tumor Volume (mm3) (d30),[2]; dose 25 mg/kg,1803.16 ± 368.50 mm3
same,Relative Tumor Proliferation Rate (T/C),[2]; dose 50 mg/kg,53.48%
same,Relative Tumor Volume (RTV),[2]; dose 50 mg/kg,7.70 ± 1.65
same,Tumor Volume (mm3) (d 1),[2]; dose 50 mg/kg,161.76 ± 30.69 mm3
same,Tumor Volume (mm3) (d30),[2]; dose 50 mg/kg,1252.64 ± 404.06 mm3
same,Relative Tumor Proliferation Rate (T/C),[2]; dose 100 mg/kg,35.63%
same,Relative Tumor Volume (RTV),[2]; dose 100 mg/kg,5.13 ± 1.13
same,Tumor Volume (mm3) (d 1),[2]; dose 100 mg/kg,160.38 ± 38.86 mm3
same,Tumor Volume (mm3) (d30),[2]; dose 100 mg/kg,826.76 ± 259.70 mm3
same,mouse weight compared with the model group,"[2]; mouse, in vivo",no significant changes
same,Body Weight (g) (d1),"[2]; mouse, in vivo, 25 mg/kg",21.31 ± 1.23 g
same,Body Weight (g) (d30),"[2]; mouse, in vivo, 25 mg/kg",21.19 ± 1.52 g
same,Body Weight (g) (d1),"[2]; mouse, in vivo, 50 mg/kg",21.22 ± 1.24 g
same,Body Weight (g) (d30),"[2]; mouse, in vivo, 50 mg/kg",21.00 ± 0.98 g
same,Body Weight (g) (d1),"[2]; mouse, in vivo, 100 mg/kg",21.34 ± 1.78 g
same,Body Weight (g) (d30),"[2]; mouse, in vivo, 100 mg/kg",21.09 ± 1.43 g
same,growth of Lewis lung cancer in mice,"[3]; 13, 26 and 52 mg/kg i.g. 15 days",significantly inhibit
same,Tumor Volume (mm3) (d 1),[3]; dose 12.5 mg/kg,105.02 ± 31.31 mm3
same,Tumor Volume (mm3) (d30),[3]; dose 12.5 mg/kg,1270.87 ± 198.05 mm3
same,Relative Tumor Proliferation Rate (T/C),[3]; dose 12.5 mg/kg,84.57
same,Relative Tumor Volume (RTV),[3]; dose 12.5 mg/kg,13.54 ± 6.73
same,Inhibition Rate (%),[3]; dose 13 mg/kg,35.46%
same,Tumor Weight,[3]; dose 13 mg/kg,1.03 ± 0.18 g
same,Tumor Volume (mm3) (d 1),[3]; dose 25 mg/kg,103.29 ± 29.09 mm3
same,Tumor Volume (mm3) (d30),[3]; dose 25 mg/kg,841.92 ± 385.16 mm3
same,Relative Tumor Proliferation Rate (T/C),[3]; dose 25 mg/kg,58.38
same,Relative Tumor Volume (RTV),[3]; dose 25 mg/kg,9.35 ± 5.89
same,Inhibition Rate (%),[3]; dose 26 mg/kg,48.96%
same,Tumor Weight,[3]; dose 26 mg/kg,0.82 ± 0.34 g
same,Tumor Volume (mm3) (d 1),[3]; dose 50 mg/kg,104.43 ± 23.09 mm3
same,Tumor Volume (mm3) (d30),[3]; dose 50 mg/kg,677.35 ± 237.77 mm3
same,Relative Tumor Proliferation Rate (T/C),[3]; dose 50 mg/kg,41.81
same,Relative Tumor Volume (RTV),[3]; dose 50 mg/kg,6.69 ± 2.56
same,Inhibition Rate (%),[3]; dose 52 mg/kg,57.54%
same,Tumor Weight,[3]; dose 52 mg/kg,0.68 ± 0.18 g
same,Body Weight (g) (d1),[3]; 13 mg/kg,19.62 ± 1.30 g
same,Body Weight (g) (d 15),[3]; 13 mg/kg,22.52 ± 0.57 g
same,Body Weight (g) (d1),[3]; 26 mg/kg,19.58 ± 0.63 g
same,Body Weight (g) (d 15),[3]; 26 mg/kg,22.28 ± 0.66 g
same,Body Weight (g) (d1),[3]; 52 mg/kg,20.00 ± 0.60 g
same,Body Weight (g) (d 15),[3]; 52 mg/kg,22.42 ± 1.66 g
